Like-named read-outs stand apart in the source and are kept apart here.
Key:
Assay type in all cases: cell-based
[1] = target: T1, Ikaros (IKZF1) (Homo sapiens, UniProt Q13422+Q96SW2); test: Ikaros degradation assay, H929 cell line; settings: NCI-H929, H929 cells, 10 uM, 24 h, read-out: % of IKZF1 protein reduction
T1 construct: Ikaros degradation in the H929 cell line was investigated; endogenous in cells; host or cells: H929
Procedure: (§1) Cells were seeded on 6- or 12-well plates, and the compounds to be tested were added at the desired concentration range. […] After 24 h incubation (37° C., 5% CO2), cells were harvested, washed and cell lysates were prepared using RIPA lysis buffer. The amount of protein was determined via BCA assay, and the appropriate quantity was then loaded on the precast gel for the protein separation. After primary and secondary Ab staining, the membranes were washed and signals developed. The densitometry analysis was implemented to obtain the numeric values used later in the protein level evaluation process.

[2] = tested on: H929 cells; test: Cell viability CTG assay, H929; parameters: key to Geomean absolute IC50 by molecule, 72 H: Inactive represents IC50 > 50 μM; C represents 50 μM ≥ IC50 > 5 μM; settings: H929, 72 h, 0.001-50 μM; for IC50: Homo sapiens, NCI-H929, numeric values, read-out: Geomean absolute IC50 by molecule, 72 H
Procedure: (§2) The effect of various compounds of the invention and various reference compounds on cell viability in various cell lines was investigated, using the Cell Viability—CTG Assay Protocol below. Hep3B, Kelly, H929, KG-1 and SNU-398 cells were maintained in respective cell medium (see Table 8, below). The cells were seeded on the 96-well or 384-white plates, and the compounds to be tested were added at the desired concentration range. Compounds are diluted in DMSO, and the DMSO concentration is kept constant at 0.25% v/v across the assay plate. After 72 h incubation (37° C., 5% CO2), CellTiter-Glo® Reagent (Promega/G7570) was added to the wells. Plates are shaken for 4 minutes and incubated for 8 minutes in the dark prior to reading luminescence (LU) by using the CLARIOstar Multimode Plate Reader. The signal is proportional to the amount of ATP, which is directly proportional to the number of cells present in the culture.
(§3) Luminescence (RLU) values were normalized to DMSO control. Dose response is assessed by non-linear regression and IC50 calculation with the average of technical duplicate of percentage inhibition. IC50 values are reported as absolute IC50 values, being the concentration of test compound at the intersection of the concentration-response curves with T/C=50%. For calculation of mean IC50 values the geometric mean is used.

[3] = tested on: SNU-398 cells; test: Cell viability CTG assay, SNU-398; settings: Homo sapiens; SNU-398, 72 h, 0.001-50 μM, FIG. 6C
Procedure: as §2, §3

[4] = tested on: EOL-1; test: Cell viability, additional cell lines (CellTiter-Glo), EOL-1; settings: Homo sapiens, EOL1; EOL-1, 72 h; read-out: Absolute IC50
Procedure: (§4) Tumor cells are grown at 37° C. in a humidified atmosphere with 5% CO2 in RPMI 1640 medium, supplemented with 10% (v/v) fetal calf serum and 50 μg/ml gentamicin for up to 20 passages, and are passaged once or twice weekly.
(§5) Cells are harvested from exponential phase cultures, counted and plated in 96 well flat-bottom microtiter plates at a cell density depending on the cell line's growth rate (4,000-20,000 cells/well depending on the cell line's growth rate, up to 60,000 for hematological cancer cell lines) in RPMI 1640 medium supplemented with 10% (v/v) fetal calf serum and 50 μg/ml gentamicin (140 μl/well). Cultures are incubated at 37° C. and 5% CO2 in a humidified atmosphere. After 24 h, 10 μl of test compounds or control medium are added and left on the cells for another 72 h. Compounds are serially diluted in DMSO, transferred in cell culture medium, and added to the assay plates by using a Tecan Freedom EVO 200 robotic platform. The DMSO concentration is kept constant at 0.3% v/v across the assay plate. Viability of cells is quantified by the CellTiter-Glo® cell viability assay (Promega G8462). After incubation of cells, 100 μl of CellTiter-Glo® One Solution Assay reagent are added to each well. Plates are shaken for 2 minutes to induce cell lysis and incubated for 20 minutes prior to reading luminescence (LU) by using the EnVision® Xcite multilabel plate reader (Perkin Elmer). […]

[5] = tested on: HL-60; test: Cell viability, additional cell lines (CellTiter-Glo), HL-60; settings: Homo sapiens, HL-60, 72 h; read-out: Absolute IC50
Procedure: as §4, §5

[6] = tested on: Kasumi-1; test: Cell viability, additional cell lines (CellTiter-Glo), Kasumi-1; settings: Homo sapiens; Kasumi-1, 72 h; read-out: Absolute IC50
Procedure: as §4, §5

[7] = tested on: NOMO-1; test: Cell viability, additional cell lines (CellTiter-Glo), NOMO-1; settings: Homo sapiens, NOMO-1, 72 h; read-out: Absolute IC50
Procedure: as §4, §5

[8] = tested on: OCI-AML2; test: Cell viability, additional cell lines (CellTiter-Glo), OCI-AML2; settings: Homo sapiens, OCI-AML2, 72 h; read-out: Absolute IC50
Procedure: as §4, §5

[9] = tested on: PL-21; test: Cell viability, additional cell lines (CellTiter-Glo), PL-21; settings: PL-21, 72 h; read-out: Absolute IC50
Procedure: as §4, §5

[10] = tested on: SU-DHL-1; test: Cell viability, additional cell lines (CellTiter-Glo), SU-DHL-1; settings: Homo sapiens, SU-DHL-1, 72 h; read-out: Absolute IC50
Procedure: as §4, §5

[11] = tested on: TMD8; test: Cell viability, additional cell lines (CellTiter-Glo), TMD8; settings: Homo sapiens, TMD8, 72 h; read-out: Absolute IC50
Procedure: as §4, §5

[12] = tested on: U-937; test: Cell viability, additional cell lines (CellTiter-Glo), U-937; settings: Homo sapiens, U-937, 72 h; read-out: Absolute IC50
Procedure: as §4, §5

[13] = tested on: IM-9; test: Cell viability, additional cell lines (CellTiter-Glo), IM-9; settings: Homo sapiens, IM-9, 72 h; read-out: Absolute IC50
Procedure: as §4, §5

[14] = tested on: LP-1; test: Cell viability, additional cell lines (CellTiter-Glo), LP-1; settings: Homo sapiens, LP-1, 72 h; read-out: Absolute IC50
Procedure: as §4, §5

[15] = tested on: NCI-H929; test: Cell viability, additional cell lines (CellTiter-Glo), NCI-H929; settings: Homo sapiens, NCI-H929, 72 h; read-out: Absolute IC50
Procedure: as §4, §5

[16] = tested on: OPM-2; test: Cell viability, additional cell lines (CellTiter-Glo), OPM-2; settings: Homo sapiens, OPM-2, 72 h; read-out: Absolute IC50
Procedure: as §4, §5

[17] = tested on: U-266; test: Cell viability, additional cell lines (CellTiter-Glo), U-266; settings: Homo sapiens, U-266, 72 h; read-out: Absolute IC50
Procedure: as §4, §5

[18] = target: T2, GSPT1 (Homo sapiens, UniProt P15170+Q96SW2); test: GSPT1 degradation assay, Hep3B cell line; settings: HEP3B cells, 24 h, read-out: % of GSPT1 protein reduction
T2 construct: GSPT1 degradation in the Hep3B cell line was investigated; endogenous in cells; host or cells: Hep3B
T2 sequence (P15170 whole entry): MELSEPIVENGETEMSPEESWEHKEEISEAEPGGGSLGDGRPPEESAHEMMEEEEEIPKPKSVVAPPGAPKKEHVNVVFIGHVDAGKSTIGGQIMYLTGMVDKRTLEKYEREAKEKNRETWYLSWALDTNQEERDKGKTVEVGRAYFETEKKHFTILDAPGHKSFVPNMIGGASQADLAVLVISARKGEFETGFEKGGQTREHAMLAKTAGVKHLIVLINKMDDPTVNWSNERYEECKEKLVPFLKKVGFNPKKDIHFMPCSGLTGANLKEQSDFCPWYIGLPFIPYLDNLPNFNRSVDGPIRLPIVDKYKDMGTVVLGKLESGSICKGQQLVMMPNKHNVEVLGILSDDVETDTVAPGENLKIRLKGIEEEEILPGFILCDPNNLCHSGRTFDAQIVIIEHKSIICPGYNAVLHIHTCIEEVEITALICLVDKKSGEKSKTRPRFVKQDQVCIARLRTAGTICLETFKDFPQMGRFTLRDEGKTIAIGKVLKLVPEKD
T2 sequence (Q96SW2 whole entry): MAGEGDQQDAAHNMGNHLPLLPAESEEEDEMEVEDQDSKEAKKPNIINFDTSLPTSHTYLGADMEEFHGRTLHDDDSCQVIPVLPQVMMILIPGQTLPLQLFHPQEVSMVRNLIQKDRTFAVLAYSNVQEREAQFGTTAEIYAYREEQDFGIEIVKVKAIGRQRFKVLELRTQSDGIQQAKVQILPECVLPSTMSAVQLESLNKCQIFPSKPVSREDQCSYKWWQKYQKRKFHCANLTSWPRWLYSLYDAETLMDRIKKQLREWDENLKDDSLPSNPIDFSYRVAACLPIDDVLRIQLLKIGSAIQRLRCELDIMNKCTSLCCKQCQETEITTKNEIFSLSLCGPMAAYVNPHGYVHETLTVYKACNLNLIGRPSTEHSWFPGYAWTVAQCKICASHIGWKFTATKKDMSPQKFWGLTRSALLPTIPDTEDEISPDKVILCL
T2 sequence (Q16531 whole entry partner): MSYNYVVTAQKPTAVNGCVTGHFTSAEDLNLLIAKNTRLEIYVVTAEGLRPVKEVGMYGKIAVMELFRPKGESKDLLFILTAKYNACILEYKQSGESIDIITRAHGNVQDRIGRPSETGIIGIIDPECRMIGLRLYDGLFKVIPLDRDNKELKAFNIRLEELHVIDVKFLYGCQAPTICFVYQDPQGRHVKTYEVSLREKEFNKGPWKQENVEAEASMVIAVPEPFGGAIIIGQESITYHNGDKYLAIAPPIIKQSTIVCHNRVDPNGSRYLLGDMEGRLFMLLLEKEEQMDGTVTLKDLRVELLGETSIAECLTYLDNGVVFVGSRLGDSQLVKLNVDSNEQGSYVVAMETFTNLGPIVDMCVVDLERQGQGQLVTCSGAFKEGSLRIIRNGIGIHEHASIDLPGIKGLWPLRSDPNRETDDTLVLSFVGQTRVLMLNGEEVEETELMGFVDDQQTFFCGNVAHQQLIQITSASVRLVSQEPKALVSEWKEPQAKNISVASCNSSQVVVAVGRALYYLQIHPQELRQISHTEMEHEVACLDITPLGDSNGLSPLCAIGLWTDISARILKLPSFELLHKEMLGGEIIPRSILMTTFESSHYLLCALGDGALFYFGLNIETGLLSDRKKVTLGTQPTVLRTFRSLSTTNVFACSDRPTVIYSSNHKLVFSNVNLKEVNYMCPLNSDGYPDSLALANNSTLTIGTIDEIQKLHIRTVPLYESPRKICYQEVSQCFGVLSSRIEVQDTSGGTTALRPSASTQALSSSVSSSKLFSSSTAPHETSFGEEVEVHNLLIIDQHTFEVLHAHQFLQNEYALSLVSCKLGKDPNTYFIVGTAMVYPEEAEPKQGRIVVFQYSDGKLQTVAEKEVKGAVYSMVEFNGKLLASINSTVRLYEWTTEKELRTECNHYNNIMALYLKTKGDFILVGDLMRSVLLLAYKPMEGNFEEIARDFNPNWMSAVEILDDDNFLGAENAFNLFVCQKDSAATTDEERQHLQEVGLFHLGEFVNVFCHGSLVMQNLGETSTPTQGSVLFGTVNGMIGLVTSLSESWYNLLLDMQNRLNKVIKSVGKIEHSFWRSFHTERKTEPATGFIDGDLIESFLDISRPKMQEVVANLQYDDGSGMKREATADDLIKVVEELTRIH
Procedure: (§6) Hep3B cells were maintained in EMEM medium, supplemented with penicillin/streptomycin and 10% Fetal Bovine Serum (FBS). Cells were seeded on 6- or 12-well plates, and the compounds to be tested were added at the desired concentration range. Final DMSO concentration was 0.25%. After 24 h incubation (37° C., 5% CO2), cells were harvested, washed and cell lysates were prepared using RIPA lysis buffer. The amount of protein was determined via BCA assay, and the appropriate quantity was then loaded on the precast gel for the protein separation. After primary and secondary Ab staining, the membranes were washed and signals developed. The densitometry analysis was implemented to obtain the numeric values used later in the protein level evaluation process. Densitometry values were normalized to the loading control and calculated as [%] of the DMSO control.

[19] = tested on: KG-1 cells; test: Cell viability CTG assay, KG-1; settings: Homo sapiens; KG-1, 72 h, 0.001-50 μM; read-out: KG-1 Geomean absolute IC50 by molecule, 72 H
Procedure: as §2, §3

[20] = tested on: Kelly cells; test: Cell viability CTG assay, Kelly; settings: 72 h, 0.001-50 μM, read-out: Kelly Geomean absolute IC50 by molecule, 72 H
Procedure: as §2, §3

[21] = tested on: Hep3B cells; test: Cell viability CTG assay, Hep3B; settings: Homo sapiens, 72 h, 0.001-50 μM, read-out: Hep3B Geomean absolute IC50 by molecule, 72 H
Procedure: as §2, §3

[22] = target: T3, SALL4 (Homo sapiens, UniProt Q96SW2+Q9UJQ4); test: SALL4 degradation assay, Kelly cell line (Western blot densitometry); settings: Kelly cells, 100 nM, 24 h, average from n ≥ 2 experiments
T3 construct: SALL4 degradation in the Kelly cell line was investigated; endogenous in cells; host or cells: Kelly
T3 sequence (Q9UJQ4 whole entry): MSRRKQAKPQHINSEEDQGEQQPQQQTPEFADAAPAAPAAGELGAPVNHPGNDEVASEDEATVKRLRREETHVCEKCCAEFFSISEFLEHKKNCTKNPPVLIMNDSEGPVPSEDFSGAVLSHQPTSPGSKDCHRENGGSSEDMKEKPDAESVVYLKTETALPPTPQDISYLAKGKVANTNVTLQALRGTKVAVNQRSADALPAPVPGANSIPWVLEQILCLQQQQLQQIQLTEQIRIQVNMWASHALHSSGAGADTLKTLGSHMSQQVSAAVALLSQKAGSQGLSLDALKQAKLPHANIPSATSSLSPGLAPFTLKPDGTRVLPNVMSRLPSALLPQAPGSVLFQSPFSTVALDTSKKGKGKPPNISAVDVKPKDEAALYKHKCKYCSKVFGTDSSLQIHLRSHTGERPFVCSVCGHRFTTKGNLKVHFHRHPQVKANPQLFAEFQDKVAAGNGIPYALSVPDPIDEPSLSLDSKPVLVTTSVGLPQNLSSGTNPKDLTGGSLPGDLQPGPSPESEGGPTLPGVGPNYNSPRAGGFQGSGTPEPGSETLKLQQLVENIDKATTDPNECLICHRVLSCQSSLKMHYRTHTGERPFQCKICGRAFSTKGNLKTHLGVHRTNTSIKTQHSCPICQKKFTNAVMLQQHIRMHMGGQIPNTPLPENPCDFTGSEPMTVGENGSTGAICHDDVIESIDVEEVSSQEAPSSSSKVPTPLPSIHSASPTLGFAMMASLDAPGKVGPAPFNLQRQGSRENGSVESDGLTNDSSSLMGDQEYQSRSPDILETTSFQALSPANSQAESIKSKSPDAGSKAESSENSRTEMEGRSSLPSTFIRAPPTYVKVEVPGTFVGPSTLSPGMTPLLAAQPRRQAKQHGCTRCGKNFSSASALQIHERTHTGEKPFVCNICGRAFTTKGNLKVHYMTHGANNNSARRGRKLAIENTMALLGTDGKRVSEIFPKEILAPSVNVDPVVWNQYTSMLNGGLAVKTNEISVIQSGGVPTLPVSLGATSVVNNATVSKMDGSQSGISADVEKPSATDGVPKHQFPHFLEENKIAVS
T3 sequence (Q96SW2 whole entry): as the sequence (Q96SW2 whole entry) above
T3 sequence (Q16531 whole entry partner): as the sequence (Q16531 whole entry partner) above
Procedure: as §1

[23] = target: T4, Aiolos (IKZF3) (Homo sapiens, UniProt Q96SW2+Q9UKT9); test: Aiolos degradation assay, H929 cell line; settings: H929 cells, 20 μM, 24 h
T4 construct: Aiolos degradation in the H929 cell line was investigated; endogenous in cells; host or cells: H929
T4 sequence (Q9UKT9 whole entry): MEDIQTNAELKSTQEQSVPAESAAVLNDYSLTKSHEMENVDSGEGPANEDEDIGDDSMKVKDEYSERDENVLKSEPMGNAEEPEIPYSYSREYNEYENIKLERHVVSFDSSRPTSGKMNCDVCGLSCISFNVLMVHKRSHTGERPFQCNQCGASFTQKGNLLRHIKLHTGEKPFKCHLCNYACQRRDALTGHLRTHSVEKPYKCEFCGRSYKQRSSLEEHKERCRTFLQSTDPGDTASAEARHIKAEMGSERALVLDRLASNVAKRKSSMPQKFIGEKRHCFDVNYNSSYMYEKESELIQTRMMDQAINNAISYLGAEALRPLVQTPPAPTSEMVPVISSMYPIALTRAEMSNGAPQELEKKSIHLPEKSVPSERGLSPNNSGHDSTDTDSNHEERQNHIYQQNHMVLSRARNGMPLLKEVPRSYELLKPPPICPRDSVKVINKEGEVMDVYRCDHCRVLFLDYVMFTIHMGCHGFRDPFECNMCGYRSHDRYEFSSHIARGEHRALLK
T4 sequence (Q96SW2 whole entry): as the sequence (Q96SW2 whole entry) above
T4 sequence (Q16531 whole entry partner): as the sequence (Q16531 whole entry partner) above
Procedure: as §1

[24] = target: T3, SALL4; test: SALL4 degradation in the Kelly cell line, time course; settings: Kelly cells, 0.1 μM, 3, 6, 12, 24, 48 and 72 h, FIG. 2
Procedure: as §6, with “Kelly” for “Hep3B”, “RPMI-1640” for “EMEM”, “After” for “After 24 h”, “CO2) for a specified period of time,” for “CO2),”, “process.” for “process. Densitometry values were normalized to the loading control and calculated as [%] of the DMSO control.”

[25] = tested on: Kelly cells; test: Cell survival clonogenic assay, Kelly; settings: 0.1-10 μM, crystal violet staining after 9-10 days
Procedure: (§7) To determine the ability of a single cell to form a colony (defined as a cluster of at least 50 cells), Kelly and Hep3B cells were maintained in RPM11640 (Kelly) or EMEM (Hep3B) medium, supplemented with penicillin/streptomycin and 10% FBS. The cells were counted and seeded on the 6-well plates, at the density of 1×10^3 cells per well, the compounds to be tested were added at the desired concentration range, and the cells were cultured at 37° C./5% CO2. After colony formation (9-10 days), the cells were washed and treated with 6.0% glutaraldehyde and 0.5% crystal violet mix for 30 min., followed by rinsing with water and drying at room temperature (RT).

[26] = tested on: Hep3B cells; test: Cell survival clonogenic assay, Hep3B; settings: 0.1-10 μM, crystal violet staining after 9-10 days
Procedure: as §7

T1 sequence (Q13422 whole entry): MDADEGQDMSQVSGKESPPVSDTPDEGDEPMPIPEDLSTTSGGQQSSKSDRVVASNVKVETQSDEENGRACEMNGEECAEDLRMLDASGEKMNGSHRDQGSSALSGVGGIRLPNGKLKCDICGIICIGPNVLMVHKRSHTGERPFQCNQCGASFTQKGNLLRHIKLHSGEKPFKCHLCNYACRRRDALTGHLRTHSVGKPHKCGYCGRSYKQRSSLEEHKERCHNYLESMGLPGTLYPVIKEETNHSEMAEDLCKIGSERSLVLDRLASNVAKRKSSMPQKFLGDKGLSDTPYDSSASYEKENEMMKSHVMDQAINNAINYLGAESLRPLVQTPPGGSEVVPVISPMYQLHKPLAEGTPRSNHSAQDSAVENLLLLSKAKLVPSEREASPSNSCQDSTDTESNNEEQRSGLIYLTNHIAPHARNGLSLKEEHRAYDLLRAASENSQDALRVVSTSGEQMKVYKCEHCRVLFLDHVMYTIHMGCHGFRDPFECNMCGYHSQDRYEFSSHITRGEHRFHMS
T1 sequence (Q96SW2 whole entry): as the sequence (Q96SW2 whole entry) above
T1 sequence (Q16531 whole entry partner): as the sequence (Q16531 whole entry partner) above

O=C1CCC(N2Cc3cc(CNC(=O)C(F)(F)c4ccc(Cl)cc4)ccc3C2=O)C(=O)N1 (stereo not drawn) [CC-90009, reference compound]
inhibition at 10 µM ([1]; numeric values): 33% | IC50 [2]: 189 nM | IC50 [3]: > 9900 nM | IC50 [4]: 2 nM | IC50 [5]: 3 nM | IC50 [6]: 35 nM | IC50 [7]: 40 nM | IC50 [8]: 18 nM | IC50 [9]: 10 nM | IC50 [10]: 153 nM | IC50 [11]: 264 nM | IC50 [12]: 78 nM | IC50 [13]: 85 nM | IC50 [14]: 28 nM | IC50 [15]: 399 nM | IC50 [16]: 74 nM | IC50 [17]: 56 nM

NCc1cc2c(cc1F)C(=O)N(C1CCC(=O)NC1=O)C2 (stereo not drawn) [Compound 3, 3-[5-(aminomethyl)-6-fluoro-1-oxo-2,3-dihydro-1H-isoindol-2-yl]piperidine-2,6-dione]
inhibition at 10 µM ([18]; 10 uM): 80 to 100% | inhibition at 10 µM [1]: 0 to 24% | IC50 [19]: ≤ 100 nM | IC50 [20]: ≤ 100 nM | IC50 [21]: ≤ 100 nM | Geomean absolute IC50 by molecule, 72 H [2]: Inactive | IC50 [3]: 82 nM

N[C@@H](Cc1cnc[nH]1)C(=O)NCc1ccc2c(c1)CN([C@@H]1CCC(=O)NC1=O)C2=O [Compound 27, (S)-2-amino-N-((2-((R)-2,6-dioxopiperidin-3-yl)-1-oxoisoindolin-5-yl)methyl)-3-(1H-imidazol-4-yl)propanamide]
% of SALL4 protein reduction [22]: >80% | inhibition at 1 µM [18]: 80 to 100% | inhibition at 10 µM [1]: 0 to 24% | % of IKZF3 protein reduction [23]: C (C represents 0-24% of IKZF1 protein reduction) | IC50 [19]: 100 to 1000 nM | IC50 [20]: 100 to 1000 nM | IC50 [21]: 100 to 1000 nM | Geomean absolute IC50 by molecule, 72 H [2]: Inactive

Nc1c(O)ccc2c1C(=O)N(C1CCC(=O)NC1=O)C2=O (stereo not drawn) [Compound 44, 4-amino-2-(2,6-dioxopiperidin-3-yl)-5-hydroxyisoindoline-1,3-dione]
% of SALL4 protein reduction [22]: >80% | SALL4 degradation time course [24]: more rapidly and effectively than lenalidomide | inhibition at 1 µM [18]: 50 to 79% | inhibition at 10 µM [1]: 0 to 24%

Nc1cccc2c1CN(C1CCC(=O)NC1=O)C2=O (stereo not drawn) [Lenalidomide, lenalidomide, reference compound]
IC50 [2]: 433 nM | survival of the cells (colony formation) [25]: no activity | survival of the cells (colony formation) [26]: no activity

From US20240294489A1 (Captor Therapeutics S.A., priority 2020, published 2024)
